# Results reported in BindingDB's records for doi:10.1111/cbdd.12604 (Nanjing University, 2015).
# Target: 72 kDa type IV collagenase (Homo sapiens, UniProt P08253)
# Experiment: MMP-2 Inhibition Assay
# Description: This esterase assay used 4-nitrophenylacetate as a substrate. Initially, the rhMMP-2 was diluted to 100 µg/mL with 1 mM APMA in assay buffer. Later, the reaction was incubated at 37℃ for 1 hour. Then the rhMMP-2 was diluted to 0.2 µg/mL in assay buffer, whereas the substrate was diluted to 20 µM by assay buffer. To each well of 96-well plate, 50 µL diluted rhMMP-2 was loaded along with 100 µL diverse concentration of test compounds. The reaction was started by adding 50 μL of 20 μM substrate to each well. After progress in kinetic mode for 5 minutes, the results were read at excitation and emission wavelengths of 320 nm and 405 nm, respectively.
# Sequence of 72 kDa type IV collagenase (P08253 whole entry): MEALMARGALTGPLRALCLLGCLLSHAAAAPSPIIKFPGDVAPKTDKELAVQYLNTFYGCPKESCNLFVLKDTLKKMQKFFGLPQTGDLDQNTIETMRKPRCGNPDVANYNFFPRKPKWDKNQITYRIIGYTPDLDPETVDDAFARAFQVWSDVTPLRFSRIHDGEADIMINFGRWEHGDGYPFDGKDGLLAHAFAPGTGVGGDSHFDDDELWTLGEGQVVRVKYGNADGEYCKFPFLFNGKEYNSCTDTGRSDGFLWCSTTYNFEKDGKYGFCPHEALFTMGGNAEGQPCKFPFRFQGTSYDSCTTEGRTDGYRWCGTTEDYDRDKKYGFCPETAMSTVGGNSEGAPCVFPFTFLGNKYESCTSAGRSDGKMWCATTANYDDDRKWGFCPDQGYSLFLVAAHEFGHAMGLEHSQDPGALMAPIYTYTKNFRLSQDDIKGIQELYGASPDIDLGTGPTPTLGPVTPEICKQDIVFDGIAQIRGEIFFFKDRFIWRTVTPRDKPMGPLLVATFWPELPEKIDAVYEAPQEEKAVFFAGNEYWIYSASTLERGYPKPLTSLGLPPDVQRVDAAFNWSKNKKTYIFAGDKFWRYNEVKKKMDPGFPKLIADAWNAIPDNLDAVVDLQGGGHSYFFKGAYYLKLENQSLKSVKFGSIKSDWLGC
row,SMILES,IC50
1,"NS(=O)(=O)c1ccc(N2N=C(c3ccc(Cl)c(Cl)c3)CC2c2cc(Br)ccc2O)cc1 (stereo unspecified) [4-(5-(5-Bromine-2-hydroxyphenyl)-3-(3,4-dichlorobenzene)-4,5-dihydropyrazole) benzene sulfonamide (4w)]",16.2 µM
2,"NS(=O)(=O)c1ccc(N2N=C(c3ccccc3)CC2c2ccc(Cl)cc2O)cc1 (stereo unspecified) [4-(5-(5-Chloro-2-hydroxyphenyl)-3-phenyl)-4,5-dihydro benzene sulfonamide pyrazole) (4j)]",13.5 µM
3,"NS(=O)(=O)c1ccc(N2N=C(c3ccc(Cl)cc3)CC2c2cc(Cl)ccc2O)cc1 (stereo unspecified) [4-(5-(5-Chloro-2-hydroxyphenyl)-3-(4-chlorobenzene)-4,5-dihydropyrazole) benzene sulfonamide (4k)]",11.3 µM
4,"NS(=O)(=O)c1ccc(N2N=C(c3ccc(Br)cc3)CC2c2cc(Cl)ccc2O)cc1 (stereo unspecified) [4-(3-(4-Brominephenyl)-5-(5-chloro-2-hydroxyphenyl)-4,5-dihydropyrazole) benzene sulfonamide (4m)]",18.9 µM
5,"NS(=O)(=O)c1ccc(N2N=C(c3ccccc3)CC2c2cc(Br)ccc2O)cc1 (stereo unspecified) [4-(5-(5-Bromine-2-hydroxyphenyl)-3-phenyl-4,5-dihydropyrazole) benzene sulfonamide (4q)]",12.8 µM
6,"NS(=O)(=O)c1ccc(N2N=C(c3ccc(Cl)c(Cl)c3)CC2c2ccc(Cl)cc2O)cc1 (stereo unspecified) [4-(5-(5-Chloro-2-hydroxyphenyl)-3-(3,4-dichlorobenzenebase)-4,5-dihydropyrazole) benzene sulfonamide (4n)]",16.5 µM
7,"NS(=O)(=O)c1ccc(N2N=C(c3ccccc3Cl)CC2c2cc(Br)ccc2O)cc1 (stereo unspecified) [4-(5-(5-Bromine-2-hydroxyphenyl)-3-(2-chlorobenzene)-4,5-dihydropyrazole) benzene sulfonamide (4t)]",15 µM
8,"NS(=O)(=O)c1ccc(N2N=C(c3ccccc3Cl)CC2c2cc(Cl)ccc2O)cc1 (stereo unspecified) [4-(5-(5-Chloro-2-hydroxyphenyl) -3 - (2 - chlorobenzene) - 4, 5 - dihydropyrazole) benzene sulfonamide (4i)]",16.4 µM
9,"NS(=O)(=O)c1ccc(N2N=C(c3ccc(F)cc3)CC2c2ccccc2O)cc1 (stereo unspecified) [4-(5-(2-Hydroxyphenyl)-3-(4-fluorinatedphenyl)-4,5-dihydropyrazole) benzene sulfonamide (4x)]",24.7 µM
10,"NS(=O)(=O)c1ccc(N2N=C(c3ccc(Cl)c(Cl)c3)CC2c2ccccc2O)cc1 (stereo unspecified) [4-(3-(3,4-Dichlorobenzenebase)-5-(2-hydroxyphenyl)-4,5-dihydropyrazole) benzene sulfonamide (4g)]",12.9 µM
11,"C[C@@]1(O)c2cccc(O)c2C(O)=C2C(=O)[C@]3(O)C(O)=C(C(N)=O)C(=O)C[C@@H]3C[C@@H]21 [(4aS,5aS,6S,12aR)-1,6,10,11,12a-pentahydroxy-6-methyl-3,12-dioxo-4,4a,5,5a-tetrahydrotetracene-2-carboxamide]",1.13 µM
12,"NS(=O)(=O)c1ccc(N2N=C(c3ccc(Cl)cc3)CC2c2cc(Br)ccc2O)cc1 (stereo unspecified) [4-(5-(5-Bromine-2-hydroxyphenyl)-3-(4-chlorobenzene)-4,5-dihydropyrazole) benzene sulfonamide (4u)]",15.8 µM
13,"NS(=O)(=O)c1ccc(N2N=C(c3ccccc3Cl)CC2c2ccccc2O)cc1 (stereo unspecified) [4-(3-(2-Chlorobenzene)-5-(2-hydroxyphenyl)-4,5-dihydropyrazole) benzene sulfonamide (4b)]",11.5 µM

# Further compounds by falling IC50, results first:
row,IC50,SMILES
1,8.73 µM,"NS(=O)(=O)c1ccc(N2N=C(c3ccc(Br)cc3)CC2c2cc(Br)ccc2O)cc1 (stereo unspecified) [4-(5-(5-Bromine-2-hydroxyphenyl)-3-(4-brominephenyl)-4,5-dihydropyrazole) benzene sulfonamide (4v)]"
2,4.65 µM,"Cc1ccc(C2=NN(c3ccc(S(N)(=O)=O)cc3)C(c3ccccc3O)C2)cc1C (stereo unspecified) [4-(3-(3,4-Dimethylphenyl)-5-(2-hydroxyphenyl)-4,5-dihydropyrazole) benzene sulfonamide (4f)]"
3,4.62 µM,"COc1ccc(C2=NN(c3ccc(S(N)(=O)=O)cc3)C(c3ccc(Cl)cc3O)C2)cc1 (stereo unspecified) [-(5-(5-Chloro-2-hydroxyphenyl)-3-(4-methylphenyloxygen)-4,5-dihydropyrazole) benzene sulfonamide (4l)]"
4,3.84 µM,"CCOc1ccc(C2=NN(c3ccc(S(N)(=O)=O)cc3)C(c3ccc(Cl)cc3O)C2)cc1 (stereo unspecified) [4-(5-(5-Chloro-2-hydroxyphenyl)-3-(4-phenylethyloxygen)-4,5-dihydropyrazole) benzene sulfonamide (4o)]"
5,3.23 µM,"COc1cccc(C2=NN(c3ccc(S(N)(=O)=O)cc3)C(c3cc(Br)ccc3O)C2)c1 (stereo unspecified) [4-(5-(5-Bromine-2-hydroxyphenyl)-3-(3-oxygenmethylphenyl)-4,5-dihydropyrazole) benzene sulfonamide (4r)]"
6,2.13 µM,"COc1cccc(C2=NN(c3ccc(S(N)(=O)=O)cc3)C(c3cc(Cl)ccc3O)C2)c1 (stereo unspecified) [4-(5-(5-Chloro-2-hydroxyphenyl)-3-(3-oxygenmethylphenyl)-4,5-dihydropyrazole) benzene sulfonamide (4p)]"
7,1.83 µM,"COc1ccc(C2=NN(c3ccc(S(N)(=O)=O)cc3)C(c3ccccc3O)C2)cc1 (stereo unspecified) [4-(5-(2-Hydroxyphenyl)-3-(4-methoxyphenyl)-4,5-dihydropyrazole) benzene sulfonamide (4y)]"
8,1.81 µM,"COc1cccc(C2=NN(c3ccc(S(N)(=O)=O)cc3)C(c3ccccc3O)C2)c1 (stereo unspecified) [4-(5-(2-Hydroxyphenyl)-3-(3-oxygenmethylphenyl)-4,5-dihydropyrazole) benzene sulfonamide (4e)]"
